Results from paper PMC4113456, “Atypical Signaling and Functional Desensitization Response of MAS Receptor to Peptide Ligands” (PLoS ONE, 2014).
Positions count from the first letter of the chain named. Marks after values point to notes of the source that are not given here.

Columns and labels:
MAS = biological target: T1, MAS (Homo sapiens, UniProt P04201); design: method as in ref [9] (a number printed in a supplementary file, which may have a reference list of its own: not looked up in the article's list); conditions: ref [9], read-out: EC50 (IP1 assay); cited from earlier work
T1 construct: expressed in transfected cells
T1 sequence (P04201 1-325): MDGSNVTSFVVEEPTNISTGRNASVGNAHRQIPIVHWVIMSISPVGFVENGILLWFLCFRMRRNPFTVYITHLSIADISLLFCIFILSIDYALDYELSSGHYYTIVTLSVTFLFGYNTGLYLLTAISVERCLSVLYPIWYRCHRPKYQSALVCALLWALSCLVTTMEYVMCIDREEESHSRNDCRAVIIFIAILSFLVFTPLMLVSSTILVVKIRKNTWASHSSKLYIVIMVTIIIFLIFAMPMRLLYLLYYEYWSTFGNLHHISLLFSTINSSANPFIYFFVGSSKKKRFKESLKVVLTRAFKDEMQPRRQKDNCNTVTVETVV

MAS T270A mutant [1] = biological target: T2, MAS T270A mutant (Homo sapiens, UniProt P04201, T270A); test: Calcium assay, T270A MAS mutant stable cell line; type: cell-based
T2 construct: expressed in transfected cells
T2 sequence (P04201 1-325 T270A): T1 sequence (P04201 1-325) with T270A
Method: The assay was performed using FLIPR Calcium 5 assay kit (Molecular Devices, Sunnyvale, CA). For calcium measurements, cells at a density of 125,000 cells/well in 100 µl medium were seeded onto a 96-well clear bottom black cell culture plate that was pre-coated with poly-L-lysine. In the calcium assays the cell density of 125,000 cells/well was consistently maintained to minimize variability between independent experiments. The cells were seeded in induction media to induce MAS expression or in complete media for negative controls. The plate was maintained in a cell culture incubator for 26–28 h. The cells were then serum starved for 2 h by replacing the medium with 100 µl of serum free DMEM. In the case of pre-treatment with pan-inhibitor of G protein signaling, BIM-46187, the cells were initially serum starved for 1 h by replacing the medium with 50 µl of serum free DMEM. After 1 h, 50 µl of BIM-46187 was added to the cells to a final concentration of 25 µM and treated for another 1 h. Following serum starvation, 100 µl of calcium sensitive dye along with 2x (2.5 mM final concentration) probenecid (Life Technologies, Grand Island, NY) was added to the cells. During this step, AR-inverse agonist or BIM-46187 was also added at desired concentrations to the calcium dye preparation in case of experiments where cells were pre-treated with these inhibitors. The cells were maintained for one hour in the cell culture incubator. […] The instrument was programmed in FLEX mode to add ligands (50 µl at 5x concentration) to the cells and to monitor the fluorescence before and after adding the ligands. […]
The kinetic parameter t1/2 (time taken to reach half of the maximum response) was determined using SoftMax Pro software supplied with the FlexStation 3 instrument (Molecular Devices, Sunnyvale, CA).
For re-stimulation assays, the data is expressed as the percentage of maximum agonist stimulation to allow for ready comparison between individual experiments. […]

MAS M244A mutant = biological target: T3, MAS M244A mutant (Homo sapiens, UniProt P04201, M244A); test: IP1 assay, M244A MAS mutant stable cell line; type: cell-based
T3 construct: expressed in transfected cells
T3 sequence (P04201 1-325 M244A): T1 sequence (P04201 1-325) with M244A
Text: The WT MAS expression construct was synthesized with an N-terminal myc-tag (Figure 1) by GenScript (Piscataway, NJ). The myc-tagged WT MAS from this vector was initially sub-cloned into pcDNA3.1 and later sub-cloned into tetracycline/doxycycline inducible vector pcDNA 5/TO (Life Technologies, Grand Island, NY). Four different ligand binding MAS mutants (F112A, I191A, M244A and T270A) were created using site-directed mutagenesis of WT myc-tagged MAS in pcDNA3.1 or pcDNA 5/TO vector background (Agilent Technologies, Santa Clara, CA). […]
IP1 levels in the cells were measured using the IP-One Tb kit (Cisbio US, Bedford, MA). […] Time-resolved ratiometric fluorescence emission measurements at 665 nm and 620 nm were taken after excitation at 343 nm on FlexStation 3 instrument. […]
(§1) For re-stimulation assays, the data is expressed as the percentage of maximum agonist stimulation to allow for ready comparison between individual experiments. For the IP1 assay, a standard curve was generated using the 4-Parameter logistic equation fit of the HTRF readings of IP1 standards using the SoftMax Pro software. […] In the luciferase assay, the luminescence measurements (RLU) are presented as a ratio of firefly to renilla luciferase activity. […]

MAS F112A mutant = biological target: T4, MAS F112A mutant (Homo sapiens, UniProt P04201, F112A); test: IP1 assay, F112A MAS mutant stable cell line; type: cell-based
T4 construct: expressed in transfected cells
T4 sequence (P04201 1-325 F112A): T1 sequence (P04201 1-325) with F112A
Text: (§2) The WT MAS expression construct was synthesized with an N-terminal myc-tag (Figure 1) by GenScript (Piscataway, NJ). The myc-tagged WT MAS from this vector was initially sub-cloned into pcDNA3.1 and later sub-cloned into tetracycline/doxycycline inducible vector pcDNA 5/TO (Life Technologies, Grand Island, NY). Four different ligand binding MAS mutants (F112A, I191A, M244A and T270A) were created using site-directed mutagenesis of WT myc-tagged MAS in pcDNA3.1 or pcDNA 5/TO vector background (Agilent Technologies, Santa Clara, CA). WT MAS receptor without an epitope tag was constructed by replacing the 5′ portion of the myc-tagged WT MAS in pcDNA 5/TO by untagged MAS sequence from a plasmid construct provided as a gift from Arena Pharmaceuticals, Inc. (San Diego, CA). The sequences of all WT and mutant MAS genes in plasmid constructs were verified by capillary DNA sequencing at the Genomics Core at Lerner Research Institute (Cleveland, OH).
(§3) IP1 levels in the cells were measured using the IP-One Tb kit (Cisbio US, Bedford, MA). For the assay, cells were seeded onto a 384-well low volume white cell culture plate at a density of 25,000 cells/well in 20 µl of induction or complete medium. In the IP1 assays the cell density of 25,000 cells/well was consistently maintained to minimize variability between independent experiments. The cells were maintained in a cell culture incubator for 26–28 h. […] Time-resolved ratiometric fluorescence emission measurements at 665 nm and 620 nm were taken after excitation at 343 nm on FlexStation 3 instrument. […]
as §1

MAS T270A mutant [2] = biological target: T2, MAS T270A mutant; test: IP1 assay, T270A MAS mutant stable cell line; type: cell-based
Text: as §2, §3, §1

| Compound | EC50 (MAS) | EC50, Calcium assay (MAS T270A mutant [1]) | t1/2, Calcium assay (MAS T270A mutant [1]) | EC50, IP1 assay (MAS M244A mutant) | EC50, IP1 assay (MAS F112A mutant) | EC50, IP1 assay (MAS T270A mutant [2]) | IC50, IP1 assay (MAS M244A mutant) | Fold over WT, IC50 IP1 assay (MAS F112A mutant) | IC50 (MAS F112A mutant) | Fold over WT, IC50 IP1 assay (MAS T270A mutant [2]) | IC50 (MAS T270A mutant [2]) |
| --- | --- | --- | --- | --- | --- | --- | --- | --- | --- | --- | --- |
| COc1cc([N+](=O)[O-])ccc1S(=O)(=O)N1CC(CN2CCN(c3ccccn3)CC2)C(c2cccc(F)c2)C1 (centres unmarked) [AR-agonist] | 0.35 µM | cbd | 40.0 ± 1.2 s | cbd | cbd | cbd |  |  |  |  |  |
| C=CCCN1CCC2(CC1)CN(C(=O)c1c(F)cccc1F)c1ccc(Cl)cc12 [AR-inverse] |  |  |  |  |  |  | cbd | 3** | 2.1 ± 0.4 µM | 2.5** | 1.7 ± 0.03 µM |
